Test results as given in patent US20250281380A1, “Skincare Formulation for Multi-Modal Reduction of Acetylcholine Concentration and Activity” (JAMRM, LLC, priority 2021, published 2025).

Tested on: ACh release, MatTek FT full-thickness model of human skin (human epidermal keratinocytes and human dermal fibroblasts)
Assay: MatTek FT tissue model, ACh concentration in the tissue culture media
Assay type: cell-based
Text: The MatTek FT™ tissue model was used to determine whether treatment with the test formulation would impact ACh release in vitro. The MatTek FT™ tissue model is a three-dimensional, full-thickness model of human skin formed from cultured human epidermal keratinocytes and human dermal fibroblasts. […] The MatTek FT™ tissue model allows for the performance of preclinical studies to evaluate mechanisms of action for skincare products.
A first untreated tissue model served as a control sample and was maintained in a tissue culture media. A second tissue model was maintained in a tissue culture media and treated daily with the test formulation. A third tissue model was maintained in a tissue culture media and exposed to Neostigmine, an acetylcholinesterase inhibitor that prevents the breakdown of ACh in the tissue culture media. A fourth tissue model was maintained in a tissue culture media, treated daily with the test formulation, and exposed to Neostigmine. The amount of ACh created by each of the tissue models was determined by measuring the ACh concentration in the tissue culture media. The results can be seen in FIG. 1.

## CN(C)C(=O)Oc1cccc([N+](C)(C)C)c1 [Neostigmine]
FIG. 1, tissue model exposed to Neostigmine alone (third tissue model), time not stated
  accumulation of ACh (ACh concentration in tissue culture media): about 200 picograms per ml of solution
FIG. 2, 72 hours, neostigmine in the untreated tissue model
  ACh concentration at 72 hours, in words, effect of presence of neostigmine: relatively higher concentrations of ACh
